Key:
TNF = experiment: PBMC assay: TNF cytokine level after LPS stimulation; type: cell-based; conditions: PBMC; human PBMCs, 30 min compound, 100 ng/ml LPS for 6 hrs, MSD
Procedure, shortened: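 Thawed human PBMCs from healthy donors (7.5×10^4 per well, RPMI + 10% FBS) preincubated 30 min at 37° C with 1:3 serially diluted compounds, then stimulated 6 h with 100 ng/ml LPS (final). Supernatant TNF measured by MSD immunoassay; EC50/AC50 derived.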

IL-1β = experiment: PBMC assay: IL-1β release after LPS stimulation; type: cell-based; conditions: PBMC; human PBMCs, 30 min compound, 100 ng/ml LPS for 6 hrs, MSD; read-out: IL1β AC50
Procedure, shortened: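 Thawed PBMCs from healthy donors (7.5×10^4 cells/well) were preincubated with serially diluted compound for 30 min at 37 °C, then stimulated with 100 ng/ml LPS (final) for 6 h. IL-1β in the supernatant was measured by MSD immunoassay, and AC50 values were derived from the concentration-response data.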

Structure (SMILES)	AC50 (TNF)	AC50 (IL-1β)
CC(C)COc1cc(=O)n(CC(=O)NC23CC(C(N)C(F)(F)F)(C2)C3)nc1C(C)C (stereo not drawn) [Compound 107]	> 20 µM	1.31 µM
CC(C)COc1cc(=O)n(CC(=O)Nc2ccc3nncn3n2)nc1OCC(C)C [Compound 108]	> 20 µM	1.33 µM
CNC(C(F)(F)F)C12CC(NC(=O)Cn3nc(C(C)C)c(OCC(C)C)cc3=O)(C1)C2 (stereo not drawn) [Compound 109]	> 20 µM	1.35 µM
CC(C)COc1cc(=O)n(CC(=O)NC23CC(C2)C3)nc1C(C)C [Compound 110]	> 20 µM	1.44 µM
COCC12CC(NC(=O)Cn3nc(C(C)C)c(OCC(C)C)cc3=O)(C1)C2 [Compound 111]	> 20 µM	1.47 µM
CC(C)COc1cc(=O)n(CC(=O)NC23CC(CS(C)(=O)=O)(C2)C3)nc1C(C)C [Compound 112]	> 20 µM	1.55 µM
CC(C)COc1cc(=O)n(CC(=O)Nc2cc3ccccn3n2)nc1C(C)C [Compound 113]	> 20 µM	1.79 µM
CC(C)c1nn(CC(=O)Nc2ccc3nncn3c2)c(=O)c(Cl)c1OCC(F)(F)F [Compound 114]	> 20 µM	1.85 µM
CC(C)COc1cc(=O)n(CC(=O)NC23CCC(NC(=O)OC(C)(C)C)(C2)C3)nc1C(C)C [Compound 115]	> 20 µM	1.88 µM
CC(C)COc1cc(=O)n(CC(=O)NC23CC(S(=O)(=O)C4CC4)(C2)C3)nc1C(C)C [Compound 116]	> 20 µM	1.91 µM
CC(C)COc1cc(=O)n(CC(=O)NC23CC(N)(C2)C3)nc1C(C)C [Compound 117]	> 20 µM	2.04 µM
CC(C)COc1c(C(C)C)nn(CC(=O)Nc2ccc3nncn3c2)c(=O)c1C(F)F [Compound 118]	> 20 µM	2.3 µM
Cc1nnc(C23CC(NC(=O)Cn4nc(C(C)C)c(OCC(C)C)cc4=O)(C2)C3)o1 [Compound 119, 2-(4-isobutoxy-3-isopropyl-6-oxopyridazin-1(6H)-yl)-N-(3-(5-methyl-1,3,4-oxadiazol-2-yl)bicyclo[1.1.1]pentan-1-yl)acetamide]	> 20 µM	2.52 µM
Cc1ccn2nc(NC(=O)Cn3nc(C(C)C)c(OCC(C)C)cc3=O)cc2n1 [Compound 120]	> 20 µM	2.66 µM
CC(C)COc1cc(=O)n(CC(=O)NC23CC(N4CCCCC4)(C2)C3)nc1C(C)C [Compound 121]	> 20 µM	2.71 µM
CC(C)COc1cc(=O)n(CC(=O)N[C@]23CC[C@@](NC(=O)OC(C)(C)C)(CC2)C3)nc1C(C)C [Compound 122, tert-butyl ((1r,4r)-4-(2-(4-isobutoxy-3-isopropyl-6-oxopyridazin-1(6H)-yl)acetamido)bicyclo[2.2.1]heptan-1-yl)carbamate]	> 20 µM	2.81 µM
COc1ccc2nc(NC(=O)Cn3nc(C(C)C)c(OCC(C)C)cc3=O)nn2c1 [Compound 123]	> 20 µM	2.91 µM
CC(C)COc1cc(=O)n(CC(=O)Nc2nc3ccc(C(F)(F)F)cn3n2)nc1C(C)C [Compound 124]	> 20 µM	3.4 µM
CC(C)COc1cc(=O)n(CC(=O)NC23C4C5C2C2C3C4C52C(=O)O)nc1C(C)C (stereo not drawn) [Compound 125]	> 20 µM	3.41 µM

Structure (SMILES)	AC50 (TNF)	AC50 (IL-1β)
CC(C)COc1cc(=O)n(CC(=O)Nc2cn3cc(Br)ncc3n2)nc1C(C)C [Compound 126]	> 20 µM	3.56 µM
CC(C)COc1c(C(C)C)nn(CC(=O)Nc2ccc3nncn3n2)c(=O)c1C(C)O (stereo not drawn) [Compound 127]	19.4 µM	3.88 µM
CC(C)COc1cc(=O)n(CC(=O)Nc2nc3ccccc3o2)nc1C(C)C [Compound 128]	> 20 µM	4.28 µM
CC(C)COc1cc(=O)n(CC(=O)Nc2nc3ccc(Cl)cn3n2)nc1C(C)C [Compound 129]	> 20 µM	4.7 µM
Cc1cc(C(F)(F)F)n2nc(NC(=O)Cn3nc(C(C)C)c(OCC(C)C)cc3=O)nc2n1 [Compound 130, 2-(4-isobutoxy-3-isopropyl-6-oxopyridazin-1(6H)-yl)-N-(5-methyl-7-(trifluoromethyl)-[1,2,4]triazolo[1,5-a]pyrimidin-2-yl)acetamide]	> 20 µM	8.73 µM
CC(C)COc1cc(=O)n(CC(=O)NC23CC(C(=O)O)(C2)C3)nc1C(C)C [Compound 131, 3-(2-(4-isobutoxy-3-isopropyl-6-oxopyridazin-1(6H)-yl)acetamido)bicyclo[1.1.1]pentane-1-carboxylic acid]	> 20 µM	9.63 µM
CC(C)COc1cc(=O)n(CC(=O)NC23CC(NC(=O)OC(C)(C)C)(C2)C3)nc1C(C)C [Compound 132]	> 20 µM	9.79 µM
Cc1ccc2c(c1)nc(NC(=O)Cn1nc(C(C)C)c(OCC(C)C)cc1=O)n2C [Compound 133]	> 10 µM	> 10 µM
CC(C)COc1cc(=O)n(CC(=O)Nc2nc3ccc(Cl)cc3n2C)nc1C(C)C [Compound 134]	> 10 µM	> 10 µM
CC(C)COc1cc(=O)n(CC(=O)Nc2nc3ccc(Br)cc3n2C)nc1C(C)C [Compound 135]	> 10 µM	> 10 µM
CC(C)COc1cc(=O)n(CC(=O)Nc2nc3ccc(F)cc3n2C)nc1C(C)C [Compound 136]	> 10 µM	> 10 µM
CC(C)COc1cc(=O)n(CC(=O)Nc2nc3ccc(C#N)cc3o2)nc1C(C)C [Compound 137]	> 20 µM	10.2 µM
CC(C)c1nn(CC(=O)Nc2ccc3nncn3c2)c(=O)c(Cl)c1OCCC(F)(F)F [Compound 138]	> 20 µM	10.7 µM
Cc1cnc(C23CC(NC(=O)Cn4nc(C(C)C)c(OCC(C)C)cc4=O)(C2)C3)o1 [Compound 139, 2-(4-isobutoxy-3-isopropyl-6-oxopyridazin-1(6H)-yl)-N-(3-(5-methyloxazol-2-yl)bicyclo[1.1.1]pentan-1-yl)acetamide]	> 20 µM	10.8 µM
CC(C)COc1cc(=O)n(CC(=O)Nc2nc3ncccc3o2)nc1C(C)C [Compound 140]	> 20 µM	11.8 µM
CC(C)COc1cc(=O)n(CC(=O)Nc2nc3cc(Cl)ccc3o2)nc1C(C)C [Compound 141, N-(5-chlorobenzo[d]oxazol-2-yl)-2-(4-isobutoxy-3-isopropyl-6-oxopyridazin-1(6H)-yl)acetamide]	> 20 µM	12.2 µM
O=C(Cn1nc(OCC(F)(F)F)c(OCC(F)(F)F)cc1=O)Nc1ccc2nncn2n1 [Compound 142]	> 20 µM	15.7 µM
CC(C)c1nn(CC(=O)Nc2ccc3nncn3n2)c(=O)cc1Oc1ccccc1 [Compound 143]	> 20 µM	18 µM
CC(C)COc1cc(=O)n(CC(=O)Nc2nc3cccnc3o2)nc1C(C)C [Compound 144]	> 20 µM	> 20 µM

Structure (SMILES)	AC50 (TNF)	AC50 (IL-1β)
Cc1ccc2nc(NC(=O)Cn3nc(C(C)C)c(OCC(C)C)cc3=O)n(C)c2c1 [Compound 145]	> 20 µM	> 20 µM
CC(C)COc1cc(=O)n(CC(=O)Nc2nc3ccc(C#N)cc3n2C)nc1C(C)C [Compound 146]	> 20 µM	> 20 µM
CC(C)COc1cc(=O)n(CC(=O)Nc2nc3ccccc3n2C)nc1C(C)C [Compound 147]	> 20 µM	> 20 µM
CC(C)COc1cc(=O)n(CC(=O)Nc2nc3cc(C#N)ccc3n2C)nc1C(C)C [Compound 148]	> 20 µM	> 20 µM
CC(C)COc1cc(=O)n(CC(=O)Nc2nc3cc(F)ccc3n2C)nc1C(C)C [Compound 149]	> 20 µM	> 20 µM
CC(C)COc1cc(=O)n(CC(=O)Nc2nc3cc(Cl)ccc3n2C)nc1C(C)C [Compound 150]	> 20 µM	> 20 µM
CC(C)COc1cc(=O)n(CC(=O)Nc2nc3cc(Br)ccc3n2C)nc1C(C)C [Compound 151]	> 20 µM	> 20 µM
Cc1c(OCc2ccccc2)c(C(C)C)nn(CC(=O)Nc2ccc3nncn3c2)c1=O [Compound 152]	> 20 µM	> 20 µM
CC(C)COc1cc(=O)n(CC(=O)NC23CCC(NC(=O)OC(C)(C)C)(CC2)CC3)nc1C(C)C [Compound 153]	> 20 µM	> 20 µM
COc1nn(CC(=O)Nc2ccc3nncn3n2)c(=O)cc1OCC(F)(F)F [Compound 154]	> 20 µM	> 20 µM
CC(C)COc1c(C(C)C)nn(CC(=O)Nc2ccc3nncn3c2)c(=O)c1C(C)O (stereo not drawn) [Compound 155]	> 20 µM	> 20 µM
O=C(Cn1nc(OCC(F)(F)F)c(OCC(F)(F)F)cc1=O)Nc1ccc2nncn2c1 [Compound 156]	> 20 µM	> 20 µM
CN(C)c1nn(CCO)c(=O)cc1OCC1CC1 [Compound 157, 5-(cyclopropylmethoxy)-6-(dimethylamino)-2-(2-hydroxyethyl)pyridazin-3(2H)-one]	> 20 µM	> 20 µM
CC(C)COc1cc(=O)n(CCO)nc1N(C)C [Compound 158]	> 20 µM	> 20 µM
CC(C)c1nn(CC(=O)Nc2ccc3nncn3c2)c(=O)cc1OC1CCNC1 (stereo not drawn) [Compound 159]	> 20 µM	> 20 µM
CC(C)c1nn(CC(=O)Nc2ccc3nncn3c2)c(=O)cc1OCC1CNC1 [Compound 160]	> 20 µM	> 20 µM
CC(C)c1nn(CC(=O)Nc2ccc3nncn3c2)c(=O)cc1OC1CNC1 [Compound 161]	> 20 µM	> 20 µM
COc1cc(=O)n(CC(=O)Nc2ccc3nncn3c2)nc1C(C)C [Compound 162]	> 20 µM	> 20 µM
CC(C)COc1c(C(C)C)nn(CC(=O)Nc2ccc3nncn3c2)c(=O)c1C(F)(F)F [Compound 163]	> 20 µM	> 20 µM

— US20240109905A1, “4-ALKOXY-6-OXO-PYRIDAZINE DERIVATIVES MODULATING NLRP3” (JANSSEN PHARMACEUTICA NV, priority 2021, published 2024)
